{
  "source": "patent US20240384353A1",
  "about": "“METHODS OF TREATING PANCREATIC CANCER” (Fred Hutchinson Cancer Center, priority 2023, published 2024)",
  "system": "human PDA tumors",
  "experiment": "Median survival by HMGA2/GATA6 status (IHC, tissue microarray of human PDA tumors) and first-line therapy",
  "assay_type": "in vivo",
  "conditions": "first-line therapy, FIG. 12A-12B",
  "protocol": "Expression levels of HMGA2 and GATA6 were determined separately in Tissue microarray comprising human PDA tumors from over 800 patients, along with matched (normal pancreatic tissue) controls and correlated to clinical data (stage at diagnosis, treatment history). These samples were stained and scored for HMGA2 (FIG. 9A) and GATA6.",
  "data": [
    {"smiles": "Nc1ccn([C@@H]2O[C@H](CO)[C@@H](O)C2(F)F)c(=O)n1", "note": "[Gemcitabine]", "values": [
      {"measurement": "overall median survival of HMGA2^high/GATA6^low tumors compared to HMGA2^low/GATA6^high tumors", "result": "overall low median survival"}
    ]}
  ]
}
